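Each compound was tested at five concentrations against cells in 96-well plates for 48 hours. GI50: concentration for 50% inhibition of growth. At the TGI there is no net growth.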
Tested on: NCI-H23 lung
Test: inhibition of tumour cell growth, NCI panel, 48 h

SMILES | GI50 [µM] | TGI [µM]
O=C1c2ccccc2C(=O)c2c(NCCN=Cc3ccccc3O)cccc21 | 12.4 | > 100
Oc1ccc(/C=C/c2cc(O)cc3c2C(c2cc(O)cc(O)c2)C(c2ccc(O)c(O)c2)O3)cc1 (configuration not stated) |  | 63.9
CC1(C)N=C(N)N=C(N)N1c1cccc(OCCOc2cccc([N+](=O)[O-])c2)c1 | 1.73 | > 100
COc1ccc(/C=C/c2cnccn2)cc1OC |  | > 10
O=[N+]([O-])c1ccc(Sc2c3ccccc3nc3ccccc23)cn1 |  | > 47.8
COc1cc2c3c(n(CCCN(C)CCO)c(=O)c2cc1OC)-c1cc2c(cc1C3=O)OCO2 | 0.839 | > 24.6
C=CCn1c(SCC(=O)Nc2ccc(C(=O)/C=C/c3cc(OC)c(OC)c(OC)c3)cc2)nnc1-c1ccc(OC)cc1 | 0.67 | 2.66
CNC(C)[C@H]1CCC2C3CC=C4C(=O)[C@@H](NC(=O)C=C(C)C)CC[C@]4(C)C3CC[C@@]21C (some centres not stated) | 2.37 | 12.2
Clc1nc(Cl)c2ncn(Cc3ccccc3Cn3cnc4c(Cl)nc(Cl)nc43)c2n1 | 5.26 | 10.7
C=C1C(O)C2C(=C(C)C13CC3)C(=O)C(C)(C)C2OC (configuration not stated) | > 100 | > 100
COc1cc(C(=O)O[C@H](C(N)=O)[C@]2(C)CO2)c2cccc(C)c2c1 | < 0.0203 | 

Tested on: OVCAR-4 ovarian
Test: inhibition of tumour cell growth, NCI panel, 48 h

SMILES | GI50 [µM] | TGI [µM]
C=C(C)[C@@H]1CC[C@]2(C)[C@H](CC[C@@H]3[C@@H]([C@@](C)(O)CCC=C(C)C)CC[C@]32C)[C@@]1(C)CCC(=O)O | 16.3 | 39
Cn1cc(S(=O)(=O)N2CCC3=Cc4c(cnn4-c4ccc(F)cc4)C[C@]3(C(=O)c3cc(C(F)(F)F)ccn3)C2)cn1 | > 100 | > 100
Cc1ccc2occ/c(=N\Nc3ccccc3)c2c1 |  | > 100
CC(=O)NC1CONC1=O (configuration not stated) |  | > 100
Oc1ccc(N=Nc2nccs2)c(O)c1 | 3.46 | > 100
COc1cc(/C=C/C(=O)Oc2ccccc2)ccc1C(=O)O/C=C/c1ccccc1 |  | > 100
COc1ccc2c(c1)C(C)Cc1c(ncnc1-n1cnc3ccccc31)N2C (configuration not stated) | 1.25 | 30.6
COc1ccc(-c2noc(N)c2-c2cc(OC)c3c(c2)OCO3)cc1 | 24.3 | > 100
CC(Cl)CN1c2ccccc2Sc2ccc(Cl)cc21 (configuration not stated) |  | > 10
NCCCn1c2c(c3ccccc3c1=O)C(=O)c1ccccc1-2 | 0.785 | 9.82
O=C1c2ccccc2C(=O)c2c(NCCN=Cc3ccccc3O)cccc21 | 2.79 | > 22.9
Oc1ccc(/C=C/c2cc(O)cc3c2C(c2cc(O)cc(O)c2)C(c2ccc(O)c(O)c2)O3)cc1 (configuration not stated) |  | 41.2
CC1(C)N=C(N)N=C(N)N1c1cccc(OCCOc2cccc([N+](=O)[O-])c2)c1 | 14.4 | > 100
COc1ccc(/C=C/c2cnccn2)cc1OC |  | > 10
O=[N+]([O-])c1ccc(Sc2c3ccccc3nc3ccccc23)cn1 |  | 75.9
COc1cc2c3c(n(CCCN(C)CCO)c(=O)c2cc1OC)-c1cc2c(cc1C3=O)OCO2 | 30.9 | > 72.4
C=CCn1c(SCC(=O)Nc2ccc(C(=O)/C=C/c3cc(OC)c(OC)c(OC)c3)cc2)nnc1-c1ccc(OC)cc1 | 0.783 | 10.5
CNC(C)[C@H]1CCC2C3CC=C4C(=O)[C@@H](NC(=O)C=C(C)C)CC[C@]4(C)C3CC[C@@]21C (some centres not stated) | 2.22 | 17.9
Clc1nc(Cl)c2ncn(Cc3ccccc3Cn3cnc4c(Cl)nc(Cl)nc43)c2n1 | 2 | 4.05
C=C1C(O)C2C(=C(C)C13CC3)C(=O)C(C)(C)C2OC (configuration not stated) | > 100 | > 100
COc1cc(C(=O)O[C@H](C(N)=O)[C@]2(C)CO2)c2cccc(C)c2c1 |  | > 26

Tested on: SW-620 colon
Test: inhibition of tumour cell growth, NCI panel, 48 h

SMILES | GI50 [µM] | TGI [µM]
C=C(C)[C@@H]1CC[C@]2(C)[C@H](CC[C@@H]3[C@@H]([C@@](C)(O)CCC=C(C)C)CC[C@]32C)[C@@]1(C)CCC(=O)O | 28.5 | > 100
Cn1cc(S(=O)(=O)N2CCC3=Cc4c(cnn4-c4ccc(F)cc4)C[C@]3(C(=O)c3cc(C(F)(F)F)ccn3)C2)cn1 | > 100 | > 100
Cc1ccc2occ/c(=N\Nc3ccccc3)c2c1 |  | > 100
CC(=O)NC1CONC1=O (configuration not stated) |  | > 100
Oc1ccc(N=Nc2nccs2)c(O)c1 | 5 | 22.3
COc1cc(/C=C/C(=O)Oc2ccccc2)ccc1C(=O)O/C=C/c1ccccc1 |  | > 100
COc1ccc2c(c1)C(C)Cc1c(ncnc1-n1cnc3ccccc31)N2C (configuration not stated) | 0.379 | 17.8
COc1ccc(-c2noc(N)c2-c2cc(OC)c3c(c2)OCO3)cc1 | 0.677 | > 100
CC(Cl)CN1c2ccccc2Sc2ccc(Cl)cc21 (configuration not stated) |  | > 10
NCCCn1c2c(c3ccccc3c1=O)C(=O)c1ccccc1-2 | 0.0713 | 5.83
O=C1c2ccccc2C(=O)c2c(NCCN=Cc3ccccc3O)cccc21 | 2.14 | 7.07
Oc1ccc(/C=C/c2cc(O)cc3c2C(c2cc(O)cc(O)c2)C(c2ccc(O)c(O)c2)O3)cc1 (configuration not stated) |  | > 100
CC1(C)N=C(N)N=C(N)N1c1cccc(OCCOc2cccc([N+](=O)[O-])c2)c1 | 1.93 | > 100
COc1ccc(/C=C/c2cnccn2)cc1OC |  | > 10
O=[N+]([O-])c1ccc(Sc2c3ccccc3nc3ccccc23)cn1 |  | > 57.4
COc1cc2c3c(n(CCCN(C)CCO)c(=O)c2cc1OC)-c1cc2c(cc1C3=O)OCO2 | 0.879 | > 55.2
C=CCn1c(SCC(=O)Nc2ccc(C(=O)/C=C/c3cc(OC)c(OC)c(OC)c3)cc2)nnc1-c1ccc(OC)cc1 | 0.397 | > 47.4
CNC(C)[C@H]1CCC2C3CC=C4C(=O)[C@@H](NC(=O)C=C(C)C)CC[C@]4(C)C3CC[C@@]21C (some centres not stated) | 1.7 | 4.03
Clc1nc(Cl)c2ncn(Cc3ccccc3Cn3cnc4c(Cl)nc(Cl)nc43)c2n1 | 1.67 | 3.33
C=C1C(O)C2C(=C(C)C13CC3)C(=O)C(C)(C)C2OC (configuration not stated) | > 100 | > 100
COc1cc(C(=O)O[C@H](C(N)=O)[C@]2(C)CO2)c2cccc(C)c2c1 | < 0.01 | 1.72

Source: PubChem BioAssay (NCI)
